Read-outs that look alike come from different tables or passages of the source.
Tests used:
[1] = system: rat prostate, seminal vesicle, levator ani muscle; experiment: Systemic antiandrogenic activity in orchidectomized immature male rats with DHT implant; format: in vivo; details: rat +DHT, 0.5 mg/animal daily 7 days; for % Inhibition Prostate: s.c; for inhibition in vivo at 0.5 mg: Rattus norvegicus, 168 h
[2] = system: Shionogi mouse mammary carcinoma cells; experiment: Androgenic/antiandrogenic activity: inhibition of DHT-stimulated Shionogi cell number; format: cell-based; details: DHT-stimulated Shionogi cell number; for IC50: Mus musculus
[3] = system: rat prostate, seminal vesicle, levator ani muscle; experiment: Systemic androgenic activity in orchidectomized immature male rats; format: in vivo; details: sc, 168 h, 0.2 mg/animal daily 7 days
Excerpt: Column 7 represents the % of androgenic efficacy in rat prostate, expressed in percentage of stimulation:
W is the weight of the prostate.
Column 8 represents the % of androgenic efficacy in rat seminal vesicle, expressed in percentage of stimulation:
W is the weight of the seminal vesicle.
Column 9 represents the % of androgenic efficacy in rat levator ani muscle, expressed in percentage of stimulation: […]
Immature male rats (Crl:CD(SD)Br) 22 to 24-day old were obtained from Charles-River, Inc. (St-Constant, Quebec, Canada) and housed up to 5 per cage in plastic bins in a temperature (23±1° C.)— and light (12 h light/day, lights on at 7h15)— controlled environment. The rats were fed rodent chow and tap water ad libitum. The day following their arrival, the animals were orchidectomized (CX) under Isoflurane anesthesia via scrotal route and randomly assigned to groups of 5 animals.
To evaluate the antiandrogenic activity, tested compounds were administered subcutaneously or orally once daily at a dose of 0.5 mg/animal for antiandrogenitic activity or 0.2 mg/animal for androgenic activity for 7 days (SD 1 to 7). Compounds were solubilized (when possible) in dimethylsulfoxide (DMSO, 10% final concentration) and administered as suspension in 0.4% methylcellulose. […] One group of animals received the antiandrogen Flutamide as reference. The animals were killed by cervical dislocation under isoflurane anesthesia on the 8th morning following castration. The ventral prostate and seminal vesicles were rapidly dissected and weighed.
3. Calculations and Statistical Analysis
W is the weight of the prostate, the seminal vesicle or levator ani.

Human Androgen Receptor = target: T1, Human Androgen Receptor (Homo sapiens, UniProt P10275); experiment: Androgen receptor binding assay ([3H]R1881, HAP) in cytosol of HEK-293 cells transfected with hAR; details: relative to R1881 = 100, transfected cells
T1 sequence (P10275 1-920): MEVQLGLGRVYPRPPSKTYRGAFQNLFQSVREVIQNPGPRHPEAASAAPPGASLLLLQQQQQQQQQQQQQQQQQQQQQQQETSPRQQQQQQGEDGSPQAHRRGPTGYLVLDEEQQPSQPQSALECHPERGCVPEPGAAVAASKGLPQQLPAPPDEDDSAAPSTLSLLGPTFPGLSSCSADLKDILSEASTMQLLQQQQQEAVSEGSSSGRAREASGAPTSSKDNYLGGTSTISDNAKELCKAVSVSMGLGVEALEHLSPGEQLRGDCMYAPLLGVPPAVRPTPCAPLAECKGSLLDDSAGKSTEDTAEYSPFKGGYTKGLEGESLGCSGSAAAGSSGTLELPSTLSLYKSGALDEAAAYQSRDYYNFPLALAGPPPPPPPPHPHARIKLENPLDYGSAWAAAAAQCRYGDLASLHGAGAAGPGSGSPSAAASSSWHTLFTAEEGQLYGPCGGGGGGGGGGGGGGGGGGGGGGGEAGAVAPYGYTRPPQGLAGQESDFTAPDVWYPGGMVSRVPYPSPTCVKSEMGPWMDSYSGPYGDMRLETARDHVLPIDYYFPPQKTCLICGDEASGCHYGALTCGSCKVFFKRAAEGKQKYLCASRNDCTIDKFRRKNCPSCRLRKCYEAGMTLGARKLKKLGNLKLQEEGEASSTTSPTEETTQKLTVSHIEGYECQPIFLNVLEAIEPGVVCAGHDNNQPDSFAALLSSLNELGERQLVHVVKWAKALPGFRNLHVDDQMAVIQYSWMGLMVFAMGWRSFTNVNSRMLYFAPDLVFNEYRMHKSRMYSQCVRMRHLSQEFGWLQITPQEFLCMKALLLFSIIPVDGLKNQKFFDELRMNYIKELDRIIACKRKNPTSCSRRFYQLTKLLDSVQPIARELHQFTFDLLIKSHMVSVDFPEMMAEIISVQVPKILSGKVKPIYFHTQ

[4] = read-out: Shionogi Antiandrogenic Activity IC50, Table 3, agonist reported when compound stimulates the cells
[5] = Table 3, s.c (marked in prostate cell), read-out: % Stimulation Lev.Ani
[6] = Table 3, s.c (marked in prostate cell), read-out: % Stimulation SV
[7] = Table 3, s.c, read-out: % Stimulation Prostate
[8] = read-out: Lev Ani % inhibition, Table 2, s.c. or p.o. (route not marked), levator ani
[9] = read-out: Prostate % inhibition, Table 2, s.c. or p.o. (route not marked)
[10] = read-out: SV % inhibition, Table 2, s.c. or p.o. (route not marked), seminal vesicle
[11] = read-out: Shionogi Antiandrogenic Activity IC50, Table 2
[12] = Prostate cell, po, read-out: Lev Ani % inhibition, Table 1, p.o, levator ani
[13] = Prostate cell, po, read-out: SV % inhibition, Table 1, p.o, seminal vesicle
[14] = po, read-out: Prostate % inhibition, Table 1, p.o
[15] = read-out: Shionogi Antiandrogenic Activity IC50, Table 1

| Structure (SMILES) | % Inhibition Prostate ([1]; Table 3) [s.c %] | change in vivo at 0.2 mg [3, 5] [%] | change in vivo at 0.2 mg [3, 6] [%] | change in vivo at 0.2 mg [3, 7] [%] | Human Androgen Receptor Binding (%) RBA R1881 = 100 (Human Androgen Receptor; Table 3) [%] | inhibition in vivo at 0.5 mg [1, 8] [%] | inhibition in vivo at 0.5 mg [1, 9] [%] | inhibition in vivo at 0.5 mg [1, 10] [%] | IC50 [2, 11] [nM] | Human Androgen Receptor Binding (%) RBA R1881 = 100 (Human Androgen Receptor; Table 2) [%] | also measured |
| --- | --- | --- | --- | --- | --- | --- | --- | --- | --- | --- | --- |
| Cc1c(N2C(=O)C(C)(C)N(CCCOc3ccc(CNC(C)C)cc3)C2=S)ccc(C#N)c1Cl [EM-7198] | 15 | 182 | 106 | 65 | 44 | – | – | – | – | – | IC50 [2, 4]: 10 nM |
| Cc1c(N2C(=O)C(C)(C)N(CCCOc3ccc(CN(C)C)cc3)C2=S)ccc(C#N)c1Cl [EM-7298] | 36 | 103 | 29 | 33 | 61 | – | – | – | – | – | % Inhibition Lev.Ani ([1]; Table 3, s.c (marked in prostate cell)): 14%; IC50 [2, 4]: 8.2 nM |
| CCCS(=O)(=O)c1ccc(OCCC2(O)CCN(c3ccc(C#N)c(C(F)(F)F)c3)CC2)cc1 [EM-8229] | – | – | – | – | – | 16 | 3 | 19 | 49.8 | <1.0 | – |
| CCS(=O)(=O)c1ccc(OCCC2(O)CCN(c3ccc(C#N)c(C(F)(F)F)c3)CC2)cc1 [EM-8230] | – | – | – | – | – | 35 | 0 | 23 | 75.9 | <1.0 | – |
| Cc1cc(CN2CCOCC2)ccc1OCCCN1C(=S)N(c2ccc(C#N)c(Cl)c2C)C(=O)C1(C)C [EM-8255] | 17 | 80 | 31 | 32 | 76 | – | – | – | – | – | Shionogi Antiandrogenic Activity IC50 ([2]; Table 3, agonist reported when compound stimulates the cells): Partial agonist |
| Cc1cc(=O)oc2ccc(OCCCN3C(=S)N(c4ccc(C#N)c(C(F)(F)F)c4)C(=O)C3(C)C)cc12 [EM-8259] | – | – | – | – | – | – | – | – | – | – | inhibition in vivo at 0.5 mg [1, 12]: 53%; inhibition in vivo at 0.5 mg [1, 13]: 53%; inhibition in vivo at 0.5 mg [1, 14]: 31%; IC50 [2, 15]: 13.6 nM; Human Androgen Receptor Binding (%) RBA R1881 = 100 (Human Androgen Receptor; Table 1): 39.6% |
| N#Cc1ccc(N2CCC(O)(CCOc3ccc4oc(=O)ccc4c3)CC2)cc1C(F)(F)F [EM-8284] | – | – | – | – | – | 21 | 0 | 0 | 12.8 | <1.0 | – |
| Cc1cc(=O)oc2ccc(OCCC3(O)CCN(c4ccc(C#N)c(C(F)(F)F)c4)CC3)cc12 [EM-8285] | – | – | – | – | – | 0 | 0 | 0 | 18.3 | <1.0 | – |
| Cc1cc(=O)oc2cc(OCCCN3C(=S)N(c4ccc(C#N)c(C(F)(F)F)c4)C(=O)C3(C)C)ccc12 [EM-8329] | – | – | – | – | – | – | – | – | – | – | inhibition in vivo at 0.5 mg [1, 12]: 17%; inhibition in vivo at 0.5 mg [1, 13]: 58%; inhibition in vivo at 0.5 mg [1, 14]: 42%; IC50 [2, 15]: 9.1 nM; Human Androgen Receptor Binding (%) RBA R1881 = 100 (Human Androgen Receptor; Table 1): 170.0% |
